Measured values from EP0462585B1, “Herbicidal composition” (ISHIHARA SANGYO KAISHA, LTD., priority 1990, dated 1991).
Structures can show the parent of a compound that is named as a salt. Where two headings read alike, the source gives them in different places.

Columns and labels:
Type in all cases: in vivo
Solidago altissima = experiment: Test Example 1 foliage treatment test, fresh weight of foliage; conditions: foliar, 600 h, read-out: Growth Inhibition Rate (%)
Text: Upland soil was placed in 1/5000-are (are (a) = 100 m²) wagner pots and planted with hills of Solidago altissima collected in the fields, and the hills were thereafter grown in a greenhouse. When the plant height reached 20 to 30 cm, a predetermined amount of each herbicidal composition which had been diluted with 15 ℓ, per are, of water and further admixed with 0.05 % (v/v) of a spreader (Shin Rino®: manufactured by Nihon Nohyaku Co., Ltd.) was foliarly applied on the plants using a small spray gun. 25 days after the foliage treatment application, the fresh weight of foliage was measured. The growth inhibition rate (%), which is listed in Table 1, was calculated according to the following equation: Growth Inhibition Rate (%) = (1 -(Fresh Weight of Foliage in Treated Plot)/(Fresh Weight of Foliage in Untreated Plot)) x 100 [formula]

Digitaria sanguinalis = experiment: Test Example 2 foliage treatment test, fresh weight of aerial part; Colby expected value; conditions: foliar, 480 h, read-out: Growth Inhibition Rate (%) Found
Text: However, there may be a case that when two kinds of active ingredients are applied in combination, the resulting herbicidal activity is higher than one obtained by simply summing up the activity of each of the two active ingredients (i.e., an expected activity). In such a case, it is said that a synergistic action is found. The expected activity which is brought by a specific combination of two kinds of herbicides can be calculated by the following equation as described, for example, in S.R. Colby, Weeds, "Calculating Synergistic and Antagonistic Responses of Herbicide Combinations", Vol. 15, pp. 20-22 (1967). E = α + β -(α x β)/(100) [formula] In the above equation, α represents a growth inhibition rate (%) when treated with a (g/are) of herbicide A; β represents a growth inhibition rate (%) when treated with b (g/are) of herbicide B; and E represents an expected growth inhibition rate (%) when treated with a (g/are) of herbicide A and b (g/are) of herbicide B.
Upland soil was placed in 1/10000-are pots and sown with Digitaria sanguinalis. When the plants reached the four-leaf stage, a predetermined amount of each herbicidal composition which had been diluted with 15 ℓ, per are, of water and further admixed with 0.2 % (v/v) of a spreader (Shin Rino®) was foliarly applied on the plants using a small spray gun. 20 days after the foliage treatment application, the fresh weight of the aerial part of the plant was measured. The growth inhibition rate (%) calculated by the equation given in Test Example 1 (found value) and the growth inhibition rate (%) calculated by the above-cited Colby equation (calculated value) are listed in Table 2.

[1] = test system: weeds such as Solidago altissima, Agropyron smithii and Digitaria sanguinalis; experiment: Test Example 3 field foliage treatment test, visual rating of herbicidal effect; conditions: visual observation 30 days after foliage treatment
Text: In a field where weeds such as Solidago altissima, Agropyron smithii and Digitaria sanguinalis had been growing mixedly, foliage treatment application of a predetermined amount of each herbicidal composition which had been diluted with 15 ℓ, per are, of water and further admixed with 0.05 % (v/v) of a spreader (Shin Rino®) was done using a small spray gun when the average plant height of these weeds reached 20 to 40 cm. 30 days after the foliage treatment application, the herbicidal effect of the herbicidal composition was examined through visual observation according to the following evaluation criteria.

For `COc1cc(OC)nc(NC(=O)NS(=O)(=O)c2ncccc2C(F)(F)F)n1` [Compound A, 1-(4,6-dimethoxypyrimidin-2-yl)-3-(3-trifluoromethyl-2-pyridylsulfonyl)urea], the inhibition at 25 g/ha (Solidago altissima; 0.25 g/a active ingredient, 25 days after foliage treatment) was 46%, the inhibition at 50 g/ha (Solidago altissima; 0.5 g/a active ingredient, 25 days after foliage treatment) was 51% and the inhibition at 100 g/ha (Solidago altissima; 1 g/a active ingredient, 25 days after foliage treatment) was 63%. The inhibition at 5 g/ha (Digitaria sanguinalis; 0.05 g/a active ingredient, 20 days after foliage treatment) was 0%, the inhibition at 10 g/ha (Digitaria sanguinalis; 0.1 g/a active ingredient, 20 days after foliage treatment) was 3.5% and the inhibition at 20 g/ha (Digitaria sanguinalis; 0.2 g/a active ingredient, 20 days after foliage treatment) was 5.3%. It also gave an inhibition at 40 g/ha (Digitaria sanguinalis; 0.4 g/a active ingredient, 20 days after foliage treatment) of 16.9%, an inhibition at 60 g/ha (Digitaria sanguinalis; 0.6 g/a active ingredient, 20 days after foliage treatment) of 47.4% and an inhibition at 100 g/ha (Digitaria sanguinalis; 1 g/a active ingredient, 20 days after foliage treatment) of 67.3%. The inhibition at 500 g/ha (Digitaria sanguinalis; 5 g/a active ingredient, 20 days after foliage treatment) was 99.4%, the Rating ([1]; 0.5 g/a active ingredient) was 5 (50 to 59) and the Rating ([1]; 1 g/a active ingredient) was 6 (60 to 69).

For `C[C@H](NC(=O)[C@H](C)NC(=O)C(N)CCP(C)(=O)O)C(=O)O` (stereo partly drawn) [Sodium salt of L-isomer of Compound C, L-2-amino-4-[(hydroxy)(methyl)phosphinoyl]butyryl-L-alanyl-L-alanine], the inhibition at 250 g/ha (Solidago altissima; 2.5 g/a active ingredient, 25 days after foliage treatment) was 51%, the inhibition at 500 g/ha (Solidago altissima; 5 g/a active ingredient, 25 days after foliage treatment) was 70% and the inhibition at 1000 g/ha (Solidago altissima; 10 g/a active ingredient, 25 days after foliage treatment) was 79%. The Rating ([1]; 5 g/a active ingredient) was 5 (50 to 59) and the Rating ([1]; 10 g/a active ingredient) was 6 (60 to 69).

Work on `CP(=O)(O)CC[C@H](N)C(=O)O` [Ammonium salt of L-isomer of Compound B, L-homoalanin-4-yl(methyl)phosphinic acid] yielded an inhibition at 125 g/ha (Solidago altissima) of 48%, an inhibition at 250 g/ha (Solidago altissima) of 68% and an inhibition at 500 g/ha (Solidago altissima) of 77%. The Rating ([1]; 5 g/a active ingredient) was 5 (50 to 59) and the Rating ([1]; 10 g/a active ingredient) was 6 (60 to 69).

Compound `CP(=O)(O)CCC(N)C(=O)O` (racemic) [Ammonium salt of D,L-isomer of Compound B, D,L-homoalanin-4-yl(methyl)phosphinic acid] has an inhibition at 250 g/ha (Solidago altissima) of 55%, an inhibition at 500 g/ha (Solidago altissima) of 72% and an inhibition at 1000 g/ha (Solidago altissima) of 84%. The inhibition at 30 g/ha (Digitaria sanguinalis) was 0.9%, the inhibition at 50 g/ha (Digitaria sanguinalis) was 12.8% and the inhibition at 100 g/ha (Digitaria sanguinalis) was 35.8%. The inhibition at 200 g/ha (Digitaria sanguinalis) was 52.3%, the inhibition at 300 g/ha (Digitaria sanguinalis) was 85% and the inhibition at 400 g/ha (Digitaria sanguinalis) was 90%. The inhibition at 1000 g/ha (Digitaria sanguinalis) was 100%, the Rating ([1]; 5 g/a active ingredient) was 5 (50 to 59) and the Rating ([1]; 10 g/a active ingredient) was 7 (70 to 79).
